This assay in a line: Inhibition of protein kinase C(1:1mixture of PKC alpha & beta) expressed in Sf9 insect cells. It counts as cell-based.

From ChEMBL document CHEMBL1130599, “Novel protein kinase C inhibitors: alpha-terthiophene derivatives” (Bioorg Med Chem Lett, 1998) come the findings set out here.

As a reminder, the IC50 is the concentration needed to halve the response being measured. In the case of `NCc1ccc(-c2ccc(-c3cccs3)s2)s1`, the IC50 is 7 µM.
`O=Cc1ccc(-c2ccc(-c3ccc(CO)s3)s2)s1`: the half-maximal inhibitory concentration (IC50) came out at 0.7 µM.
Under `c1csc(-c2ccc(-c3cccs3)s2)c1` stands 10 µM.
In the case of `O=Cc1ccc(-c2ccc(-c3ccc(C=O)s3)s2)s1`, the IC50 stood at 0.3 µM.
As to `CN1CCN(CCCN2c3ccccc3Sc3ccc(C(F)(F)F)cc32)CC1` [TRIFLUOPERAZINE], the half-maximal inhibitory concentration (IC50) stood at 500 µM.
Under `N#Cc1ccc(-c2ccc(-c3cccs3)s2)s1` stands 2 µM; under `O=Cc1ccc(-c2cccs2)s1`, 700 µM.
In the case of `OCc1ccc(-c2ccc(-c3cccs3)s2)s1` it was 4 µM; in that of `O=Cc1ccc(-c2ccc(-c3cccs3)s2)s1`, 0.7 µM; in that of `O=Cc1cccs1` [2-THIOPHENENECARBOXALDEHYDE], above 4000 µM.
